Measured values taken from PMC8742467, “Therapeutical interference with the epigenetic landscape of germ cell tumors: a comparative drug study and new mechanistical insights” (Clinical Epigenetics, 2022).
Like-named read-outs stand apart in the source and are kept apart here.

Assays:
[1] = system: EC (embryonal carcinoma) cell lines; experiment: XTT cell viability assay, mean per entity EC; assay type: cell-based; details: Homo sapiens, after 48 h
Method: (§1) The […] (XTT) assays were performed as described previously. In summary, for GCT and fibroblast cell lines 5 × 10^3 cells (3 × 10^3 for UC, PCa and RCC cell lines) per 96-well were seeded and different drug concentrations (see Additional file 2: Fig. S2, Additional file 3: Fig. S3) or corresponding solvents were added to the cells the following day. For drug details see Additional file 12: Table S2 C. Each condition was analyzed in four technical replicates and EC50 values were calculated by GraphPad Prism v8.

[2] = system: YST (yolk-sac tumor) cell lines; experiment: XTT cell viability assay, mean per entity YST; assay type: cell-based; details: Homo sapiens, after 48 h
Method: as §1

[3] = system: CC-R (cisplatin-resistant choriocarcinoma subclones); experiment: XTT cell viability assay, mean per entity CC-R; assay type: cell-based; details: Homo sapiens, after 48 h
Method: as §1

[4] = system: transcriptome of 2102EP cells; experiment: RNA sequencing; assay type: cell-based, Human; details: 16 h; for A1BG Log2 fold change vs. DMSO / A1CF Log2 fold change vs. DMSO / A2M Log2 fold change vs. DMSO: unsorted data
How it was run: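 Transcriptome of 2102EP cells sequenced; differential expression between two groups tested with p values FDR-corrected for multiple testing. Solvent-control values averaged across three datasets (GSE189472, GSE190792, GSE190022).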

TCam-2 (SE) = experiment: XTT cell viability assay, TCam-2; assay type: cell-based; details: Homo sapiens, read-out: EC50 colour/symbol code, SE TCam-2
Method: as §1

[5] = system: fibroblasts (MPAF, HVHF2); experiment: XTT cell viability assay, fibroblasts; assay type: cell-based; details: Homo sapiens, Fibroblast; after 48 h, mean
Method: as §1

[6] = system: phosphorylated kinase targets in 2102EP cells; experiment: Proteome Profiler Human Phospho-Kinase Array; assay type: cell-based; details: 16 h
Method: For the detection of phosphorylated kinase targets, the Proteome Profiler Human Phospho-Kinase Array Kit (R&D Systems, Abingdon, UK) was used according to the manufacturer’s instructions. The ChemiDoc Imaging System (Bio-Rad Laboratories, Feldkirchen, Germany) was used for detection. 2102EP cells were harvested after 16 h of treatment with the epi-drugs. Pixel density was analyzed using Fiji ImageJ 1.53c.

Sertoli cells FS1 (SC) = experiment: XTT cell viability assay, Sertoli cells; assay type: cell-based; details: Homo sapiens; after 48 h
Method: as §1

[7] = sorted data log2>±1.5, FDR p<0.05

Cn1cc(CNCC2CCN(c3ncc(C(=O)NO)cn3)CC2)c2ccccc21 [Quisinostat]
EC50 [1]: 11.6 nM
EC50 [2]: 6.88 nM
EC50 [3]: 10.7 nM
EIF3CL Log2 fold change vs. DMSO [4, 7]: -3.69
HBA1 Log2 fold change vs. DMSO [4, 7]: 5.01
IL13RA2 Log2 fold change vs. DMSO [4, 7]: -2.69
LYST Log2 fold change vs. DMSO [4, 7]: -2.73
TSPY4 Log2 fold change vs. DMSO [4, 7]: 5.17
TTC9B Log2 fold change vs. DMSO [4, 7]: 4.98
A1BG Log2 fold change vs. DMSO [4]: 1.07
A1CF Log2 fold change vs. DMSO [4]: 2.77
A2M Log2 fold change vs. DMSO [4]: -0.10
EC50 (TCam-2 (SE); after 48 h, XTT, n = 4): < 1000 nM
EC50 [5]: > 50 nM
CREB, STAT3 and STAT5 phosphorylation and total levels of β-Catenin and HSP60 [6]: decreased
p53 S15 phosphorylation [6]: no alteration
EC50 (Sertoli cells FS1 (SC)): 6.25 nM

CN1C(=O)[C@@]23C[C@]4([C@]56C[C@@]78SS[C@@](CO)(C(=O)N7[C@H]5Nc5ccccc56)N(C)C8=O)c5ccccc5N[C@@H]4N2C(=O)[C@]1(CO)SS3 [Chaetocin]
EC50 [1]: 128 nM
EC50 [2]: 98.7 nM
EC50 [3]: 233 nM
ATP1A2 Log2 fold change vs. DMSO [4, 7]: -3.26
CASQ1 Log2 fold change vs. DMSO [4, 7]: -2.99
DLX5 Log2 fold change vs. DMSO [4, 7]: 5.91
DLX6 Log2 fold change vs. DMSO [4, 7]: 5.90
POU2F3 Log2 fold change vs. DMSO [4, 7]: -2.99
SERPINB3 Log2 fold change vs. DMSO [4, 7]: 6.77
A1BG Log2 fold change vs. DMSO [4]: 0.04
A1CF Log2 fold change vs. DMSO [4]: -2.02
A2M Log2 fold change vs. DMSO [4]: 1.33
EC50 (TCam-2 (SE); 48 h): < 1000 nM
EC50 [5]: 138 nM
CREB, STAT3 and STAT5 phosphorylation and total levels of β-Catenin and HSP60 [6]: decreased
p53 S15 phosphorylation [6]: increased
EC50 (Sertoli cells FS1 (SC)): 69.3 nM

O=C1C(=Cc2cccnc2)C(=O)c2ccccc21 [PRT4165]
BST2 Log2 fold change vs. DMSO [4, 7]: -2.05
EIF3CL Log2 fold change vs. DMSO [4, 7]: -2.52
MMP1 Log2 fold change vs. DMSO [4, 7]: 6.18
MMP10 Log2 fold change vs. DMSO [4, 7]: 6.89
PPFIA4 Log2 fold change vs. DMSO [4, 7]: -2.26
SPANXA1 Log2 fold change vs. DMSO [4, 7]: 5.74
A1BG Log2 fold change vs. DMSO [4]: -0.25
A1CF Log2 fold change vs. DMSO [4]: 0.91
A2M Log2 fold change vs. DMSO [4]: 1.71
CREB, STAT3 and STAT5 phosphorylation and total levels of β-Catenin and HSP60 [6]: decreased
ERK1/2 phosphorylation [6]: decreased

CCCc1cc(C)[nH]c(=O)c1CNC(=O)c1cc(-c2ccnc(N3CCN(C)CC3)c2)cc2c1cnn2C(C)C [GSK343]
EC50 [1]: 10600 nM
EC50 [2]: 6180 nM
EC50 [3]: 9060 nM
CSF1R Log2 fold change vs. DMSO [4, 7]: 3.81
FOSB Log2 fold change vs. DMSO [4, 7]: 3.96
GOLGA6D Log2 fold change vs. DMSO [4, 7]: -4.42
SCNN1B Log2 fold change vs. DMSO [4, 7]: -4.06
TAC1 Log2 fold change vs. DMSO [4, 7]: 3.59
UMODL1 Log2 fold change vs. DMSO [4, 7]: -3.29
A1BG Log2 fold change vs. DMSO [4]: -0.54
A1CF Log2 fold change vs. DMSO [4]: -2.01
A2M Log2 fold change vs. DMSO [4]: -0.59
EC50 (TCam-2 (SE); after 48 h, XTT, n = 4): 1000 to 50000 nM
EC50 [5]: 9790 nM
CREB, STAT3 and STAT5 phosphorylation and total levels of β-Catenin and HSP60 [6]: decreased
ERK1/2 phosphorylation [6]: decreased
EC50 (Sertoli cells FS1 (SC)): 10600 nM
